According to US11760978B2, “Cell culture medium for culturing organoid, culture method, and organoid” (KEIO UNIVERSITY, priority 2016, dated 2023):

Test system: epithelial tumor cells derived from colon tumor
Experiment: Subculturing (long-term culturing) of epithelial tumor cells derived from colon tumor, Example 4
Type: cell-based, human
Settings: SB202190 10 μM in medium, oxygen 20%
Description: “WIFNRA medium”, “W^AfmIFNRA medium” and “WENRAS” medium were prepared using the same method as in section (2) of Example 4. In addition, recombinant human R-spondin 1 (R&D Systems) was added to commercially available Advanced DMEM/F-12 medium (Thermo Fisher Scientific) to a final concentration of 1 μg/mL followed by the addition noggin (Peprotech) to a final concentration of 100 ng/mL and A83-01 (Tocris) to a final concentration of 500 nM. Moreover, a medium was prepared in which the Wnt3a-afamin complex prepared in (1) above was added to a final concentration 300 ng/mL, IGF1 (Biolegend) was added to a final concentration of 100 ng/mL, FGF2 (Peprotech) was added to a final concentration of 50 ng/mL, and […] (Sigma-Aldrich) was added to a final concentration of 10 μM (and the resulting medium may be referred to as “W^AfmIFNRAS medium”).
Epithelial tumor cells were obtained using the same method as in section (2) of Example 1. Next, the epithelial tumor cells were seeded in a 48-well plate together with 25 μL of Matrigel® (BD Bioscience). The “WIFNRA medium”, “W^MmIFNRA medium”, “WENRAS medium” and “WAfmIFNRAS medium” prepared in (2) above were added in 250 μL aliquots to the wells seeded with epithelial tumor cells followed by culturing at 37° C. and oxygen concentration of 20%. The medium was replaced every two days from the start of culturing. […]

## Oc1ccc(-c2nc(-c3ccncc3)c(-c3ccc(F)cc3)[nH]2)cc1 [SB202190, 4-(4-fluorophenyl)-2-(4-hydroxyphenyl)-5-(4-pyridyl)-1H-imidazole]
  toxicity to epithelial tumor cells: exhibited toxicity
